Measured values taken from article PMC10779086, “3-O-Methyltolcapone and Its Lipophilic Analogues Are Potent Inhibitors of Transthyretin Amyloidogenesis with High Permeability and Low Toxicity” (International Journal of Molecular Sciences, 2023).
Values joined by “and” are separate entries in the source; they are usually repeats but may differ in a detail not shown here. Equal values may be shown once.

Legend:
[1] = plasma; cited from earlier work
TTR = TTR (Homo sapiens, UniProt P02766); assay: Isothermal titration calorimetry (ITC), one-binding-site model; parameters: made in house; host or cells: E. coli BL21; ∆S: unit not given here; details: single-binding-site model, 25 °C; for Kd: pH 7.4, 5% DMSO
Method: At an absorbance value of 600 nm around 0.3, the temperature was shifted to 30 °C.
Data were fitted using the “one-binding-site model” of the Malvern version of ORIGIN v.7. The heat of binding (ΔH), the stoichiometry (n), entropy (ΔS) and the dissociation constant (Kd) were then calculated from plots of the heat evolved per mole of ligand injected versus the molar ratio of ligand to protein using the software provided by the vendor (Table 3). Sample preparation is detailed below. […] A 10 µM protein stock in 2× buffer was then prepared and diluted 1:1 with a 10% DMSO solution, to obtain a 5 µM TTR solution in 1× buffer A and 5% DMSO. Different protein concentrations (3–5 µM) assayed in the replicates were prepared accordingly, starting from a 2× protein solution in 2× buffer A. Each ligand was dissolved in 100% DMSO and a 2 mM stock solution in 100% DMSO was prepared. A 200 µM compound solution was obtained in 10% DMSO and diluted 1:1 with 2× buffer A, to obtain a 100 µM ligand solution to be used for the ITC assays (in 1× buffer A and 5% DMSO).

[2] = test system: SH-SY5Y neuroblastoma human cell line; assay: Cytotoxicity in SH-SY5Y cells (ATP viability assay); type: cell-based; details: 48 h
Method: The neuroblastoma cell line SHSY-5Y (ATCC CRL2266) was cultured in EMEM ATCC medium supplemented with 10% FBS (Euroclone CAT No. ECS0180D), 100 units/mL penicillin, and 100 ug/mL streptomycin sulphate (Euroclone CAT No. ECB3001). Cells were grown at 37 °C in an atmosphere of 5% CO2 and plated at 10,000 cells/well in a 96-well plate (Corning Cat. N. 3610). The compounds were dissolved at a concentration of 10 mM in DMSO. Cells were stimulated for 48 h at 37 °C with serial dilutions of the compounds at the following concentrations: 0.1, 1, 10, 50, 100, and 200 μM and dispensed with an HP Dispenser (Tecan), as triplicates for each concentration. DMSO normalisation at 1.5% was performed in each well.
Cell viability was evaluated by measuring ATP levels using CellTiter Glo (Promega Cat.n. G7570) according to manufacturer’s instructions.

Caco-2 cells = assay: Caco-2 intestinal permeability; type: in vitro ADME, human; details: A→B, relative to tolcapone
Method: Caco-2 cells (cod. HTB-37) were bought from ATCC (American Type Culture Collection, Rockville, MD, USA). Caco-2 cells were cultured for 21 days on a 24 trans-well plate to reach the right confluence and differentiate until the formation of the intestinal epithelium mimetic monolayer. The test substance permeability was measured in both directions (apical to basolateral [A→B] and basolateral to apical [B→A]) across the cell monolayer. The assay was carried out in HBSS transport medium at pH 7.4. Test substance at single concentration (10 μM) was tested in duplicate at one time point (60 min). Monolayer integrity of Caco-2 cells was evaluated by TEER measurements during the experiment and by Lucifer Yellow test after the incubation with the test compound. The concentrations of the test substance and/or reference controls were measured by LC-MS/MS.
When the inhibitor leads the efflux ratio to a significant reduction (>50%) or to unity, the test compound is classified as a probable substrate of that efflux transporter. As control, the modulation of the efflux ratio of a reference known substrate (Digoxin) was evaluated with or without the respectively inhibitors in every experiment. […] In parallel, mass balance (%) of recovered test substance was also determined. […] Outside these ranges the permeability data is not reliable.

n (stoichiometry of binding, ligand:TTR tetramer) (TTR)	∆S (TTR)	Kd (TTR)	increase of permeability Papp value (A→B) compared to tolcapone (Caco-2 cells)	melting point	Compound	half-life [1]	∆H (TTR)	EC50 [2]
1.9 ± 0.2	4.6 ± 0.5	0.033 ± 0.009 µM			COc1cc(C(=O)c2ccc(C)cc2)cc([N+](=O)[O-])c1O [3-OMT, 3-O-methyltolcapone]	40.9 h	-8.9 kcal/mol and -8.9 ± 0.3 kcal/mol	226.3 ± 1.3 µM
2.1 ± 0.3	−0.4 ± 0.1	0.025 ± 0.005 µM	2.5 fold	126 to 127 °C	COc1cc(C(=O)c2ccc(C)cc2C)cc([N+](=O)[O-])c1O [Compound 2, (4-Hydroxy-3-methoxy-5-nitrophenyl)-1-(2,4-dimethylphenyl)methanone]		-10.5 kcal/mol and -10.5 ± 0.2 kcal/mol	174 ± 3.7 µM
1.8 ± 0.1	−2.9 ± 0.9	0.071 ± 0.026 µM	2.5 fold	144 to 145 °C	COc1cc(C(=O)c2cc(C)cc(C)c2)cc([N+](=O)[O-])c1O [Compound 1, (4-Hydroxy-3-methoxy-5-nitrophenyl)-1-(3,5-dimethylphenyl)methanone]		-11.5 kcal/mol and -11.5 ± 1.3 kcal/mol	172 ± 5 µM
